Measurements reported in article PMC1764434 (PLoS Clinical Trials, 2007).
Values joined by “and” are separate entries in the source; they are usually repeats but may differ in a detail not shown here. Identical values can stand only once. “Also recorded” adds a separate entry of the source. Like-named read-outs stand apart in the source and are kept apart here. Blank lines part the entries; values can stand above or below the compound they belong to.

How the values were obtained:
[1] = Urinary excretion and renal clearance (24-hour urine collections, days 1-3)
[2] = Blood pharmacokinetics after oral dosing (fluorescence HPLC, noncompartmental WinNonlin model); assay type: in vivo, human; conditions: for Cmax / Vd/F / MRT / Tmax / half-life / AUC: human
Experimental: Study drugs were administered in the GCRC on an empty stomach between 8 and 9 AM the morning after admission (after fasting for ≥ 10 h).

healthy volunteers [3] = assay: Clinical adverse events (weekly diaries, blinded relatedness assessment), Phase I RCT; assay type: in vivo, human
Experimental: Adverse events (AEs) were recorded in weekly diaries provided to each volunteer. The relatedness of these AEs to the study drugs was assessed by two physicians (FM, CH) based on temporal association and biological plausibility using five categories: definitely not, unlikely, possibly, probably, and definitely related. The AEs reported in this manuscript include all AEs assessed as possibly, probably, or definitely related.
Quantitative data are presented as the mean ± standard deviation or as median and range, as appropriate. […] Due to a lack of normality, the nonparametric Mann-Whitney U test was used to compare independent samples; the Wilcoxon or Friedman test (whichever was appropriate) was used to compare repeated measures of the QTc interval. All statistical tests were two-sided with an α (significance level) of 0.05. Analyses were performed using the SPSS 11.0 statistical software (SPSS, Chicago, Illinois, United States). All analyses were based on allocation by intent-to-treat.

QT interval = assay: Effects on the QT interval (ECG and Holter recordings, Bazett correction); conditions: for QTc interval, Baseline: before dosing
Experimental: The effects of the study drugs on the QT interval were assessed by comparing QT intervals before dosing with QT intervals 4 h after dosing, and at the 2 wk follow-up. […] QT intervals were measured manually and electronically (Rozinn Electronics, Glendale, New York, United States). […] Correction of the QT interval for heart rate (i.e., QTc) was performed using Bazett's formula [27].

healthy volunteers [4] = assay: Post-dose clinical and laboratory follow-up (hematology, chemistry, organ toxicity); assay type: in vivo, human
[5] = 1,500 mg CQ (n = 15) / 1,750 mg AQ-13 (n = 14)
[6] = 100, 300 mg doses, n = 16 per drug
[7] = 600/700 mg, AQ-13 n = 25, CQ n = 24
[8] = all doses combined, 63 volunteers per drug
[9] = 1,750 mg AQ-13, 1,500 mg CQ, mean ± SD
[10] = 600/700 mg AQ-13, 600 mg CQ, mean ± SD
[11] = days 1-3, 1,750 mg AQ-13 / 1,500 mg CQ

second (di-dealkylated) metabolite/parent ratio in urine ([1]; days 1-3, AQ-73/AQ-13 and BDCQ/CQ): 2.6%
detection of di-dealkylated metabolite in urine ([1]; urine collections days 1-3 after dosing): identified in urine collections
detection of di-dealkylated metabolite in the blood ([2]; after oral AQ-13 or CQ): not detected in the blood
SMILES: CC(CCCN)Nc1ccnc2cc(Cl)ccc12 (centres unmarked) [BDCQ]

amount of unchanged drug recovered from 24 hour urine collections [1, 11]: 829 µmol
unchanged drug recovered from 24 hour urine collections, % of total oral dose [1, 11]: 18.0%
CL renal ([1]; human, in vivo, po, 1500 mg): 100 mL/min
blood level one hour after dosing as % of Cmax ([2]; 600 mg oral dose): 72%
Cl/F ([2]; 1,500 mg oral over 3 d, median (range)): 9.5 L/h
median oral clearance (range of medians across dose levels) ([2]; 600 and 1,500/1,750 mg doses): 9.5 to 11.3 L/h
Cmax ([2]; in vivo, 1500 mg, 1,500 mg oral over 3 d (600+600+300 mg), whole blood, median (range), read-out: Cmax): 3400 nM
Vd/F ([2]; in vivo, 1500 mg, 1,500 mg oral over 3 d, median (range)): 3720 L
MRT ([2]; in vivo, 1500 mg, 1,500 mg oral over 3 d, median (range), read-out: MRT (converted)): 16 days
Tmax ([2]; in vivo, 1500 mg, 1,500 mg oral over 3 d, median (range), read-out: Tmax): 26.3 h
half-life ([2]; in vivo, 1500 mg, 1,500 mg oral over 3 d, median (range), read-out: t½ (converted)): 13.2 days
AUC ([2]; in vivo, po, 600 mg, single oral 600 mg dose, whole blood, median (range), read-out: AUCw1 (partial AUC for week 1)): 90 µM·h
AUC ([2]; in vivo, po, 600 mg, single oral 600 mg dose, whole blood, median (range), read-out: AUCτ (total area under the curve)): 241 µM·h
AUC ([2]; in vivo, po, 1500 mg, 1,500 mg oral over 3 d, median (range), read-out: AUCw1): 312 µM·h
AUC ([2]; in vivo, po, 1500 mg, 1,500 mg oral over 3 d, median (range), read-out: AUCτ): 636 µM·h
Tmax ([2]; in vivo, 1,750 mg AQ-13 / 1,500 mg CQ, 27–28 h after the first dose, read-out: time of peak blood concentration after the second dose): 3 to 4 h
half-life ([2]; in vivo, 600 and 1,500 mg oral doses, read-out: estimate of the terminal elimination t1/2 (across doses)): 14 to 24 days
Cmax ([2]; in vivo, single oral 600 mg dose (CQ base equivalent), whole blood, median (range), read-out: Cmax): 1800 nM
Vd/F ([2]; in vivo, single oral 600 mg dose, median (range)): 8670 L
MRT ([2]; in vivo, single oral 600 mg dose, whole blood, median (range), read-out: MRT (converted)): 24.7 days
Tmax ([2]; in vivo, single oral 600 mg dose, whole blood, median (range), read-out: Tmax): 3 h
half-life ([2]; in vivo, single oral 600 mg dose, whole blood, median (range), read-out: t½ (terminal elimination half-life) (converted)): 23.3 days
linearity of pharmacokinetics ([2]; oral doses in healthy volunteers): linear pharmacokinetics
Cl/F (apparent oral clearance) ([2]; single oral 600 mg dose, median (range)): 11.3 (5.7–20.3) l/h
SMILES: CCN(CC)CCCC(C)Nc1ccnc2cc(Cl)ccc12 (centres unmarked) [CQ, chloroquine]
related adverse events: None (healthy volunteers [3]; 10 mg dose, n = 8 per drug): 0
Abdominal pain, number (%) (healthy volunteers [3]; [5]): 0
Blurred vision, number (%) (healthy volunteers [3]; [5]): 2 (13%)
Diarrhea, number (%) (healthy volunteers [3]; [5]): 4 (27%)
Difficulty focusing/visual floating objects, number (%) (healthy volunteers [3]; [5]): 3 (20%)
Lightheadedness/Dizziness, number (%) (healthy volunteers [3]; [5]): 4 (27%)
Loss of appetite, number (%) (healthy volunteers [3]; [5]): 2 (13%)
Nausea, number (%) (healthy volunteers [3]; [5]): 5 (33%)
Vomiting, number (%) (healthy volunteers [3]; [5]): 2 (13%)
Weakness/fatigue, number (%) (healthy volunteers [3]; [5]): 0
Headache, number (%) (healthy volunteers [3]; 1,500 mg CQ (n = 15) / 1,750 mg AQ-13 (n = 14) over 3 d): 4 (27%)
Headache, volunteers with related AE, number (%) (healthy volunteers [3]; [6]): 1 (6%)
Lightheadedness/Dizziness, number (%) (healthy volunteers [3]; [6]): 1 (6%)
Nausea, number (%) (healthy volunteers [3]; [6]): 0
Abdominal pain, number (%) (healthy volunteers [3]; [7]): 0
Diarrhea, number (%) (healthy volunteers [3]; [7]): 2 (8%)
Ear symptoms, number (%) (healthy volunteers [3]; [7]): 2 (8%)
Headache, number (%) (healthy volunteers [3]; [7]): 5 (21%)
Lightheadedness/Dizziness, number (%) (healthy volunteers [3]; [7]): 3 (13%)
Loss of appetite, number (%) (healthy volunteers [3]; [7]): 3 (13%)
Nausea, number (%) (healthy volunteers [3]; [7]): 1 (4%)
Vomiting, number (%) (healthy volunteers [3]; [7]): 0
drug-related GI symptoms, number of reports (healthy volunteers [3]; all doses combined): 20 reports
drug-related lightheadedness/dizziness, volunteers/total (healthy volunteers [3]; [8]): 8/63
volunteers reporting one or more GI symptoms/total (healthy volunteers [3]; [8]): 13/63
QTc interval of individual volunteers who developed QTc greater than 450 ms (QT interval; 600 mg CQ, two females): 467 ms and 457 ms
mean QTc prolongation after the first dose (day 1) (QT interval; 1,500 mg CQ (first 600 mg dose) / 1,750 mg AQ-13 (first 700 mg dose)): 16 ms
additional QTc increase after the second dose (day 2) (QT interval; 1,500 mg CQ / 1,750 mg AQ-13): 12 ms
QTc interval of individual volunteers who developed QTc > 450 ms (QT interval; 1,500 mg CQ, 4 h after dosing on day 2, two females): 453 ms
QTc interval, Baseline (QT interval; 1,750 mg AQ-13 (n = 13), 1,500 mg CQ (n = 14), mean ± SD): 396 ± 21 ms
QTc interval, 2 wk follow-up (QT interval; [9]): 412 ± 13 ms
QTc interval, 4–5 h post-dose (day 1) (QT interval; [9]): 412 ± 22 ms
QTc interval, 4–5 h post-dose (day 2) (QT interval; [9]): 424 ± 19 ms and 424 ± 18 ms
QTc interval, 4–5 h post-dose (day 3) (QT interval; [9]): 417 ± 21 ms
mean QTc prolongation, females (QT interval; 1,750 mg AQ-13 / 1,500 mg CQ): 28 ms
mean QTc prolongation, males (QT interval; 1,750 mg AQ-13 / 1,500 mg CQ): 31 ms
mean increase in the QTc interval from baseline (QT interval; 1,750 mg AQ-13 / 1,500 mg CQ, 4 h after the second dose on day 2): 28 ms
QTc interval, Baseline (QT interval; 600/700 mg AQ-13 (n = 25), 600 mg CQ (n = 24), mean ± SD): 406 ± 19 ms
QTc interval, 2 wk follow-up (QT interval; [10]): 403 ± 15 ms
QTc interval, 4–5 h post-dose (day 1) (QT interval; [10]): 421 ± 20 ms
maximal prolongation of the QTc interval from baseline at the individual level (QT interval; 600/700 mg dose): 54 ms
maximal prolongation of the QTc interval from baseline at the individual level (QT interval; 1,500/1,750 mg dose): 63 ms
mean increase in the QTc interval from baseline, females (QT interval; 4 h after 600 mg CQ or 600/700 mg AQ-13): 22 ms
mean QTc interval change from baseline, males (QT interval; 4 h after 600 mg CQ or 600/700 mg AQ-13, not significant): 7 ms
mean increase in the QTc interval from baseline (QT interval; 4 h after 600 mg CQ or 600 or 700 mg AQ-13): 15 ms and 16 ms
arrhythmias or other cardiac AEs (QT interval; all doses): no arrhythmias or other cardiac AEs; also recorded: no cardiac AEs
hematologic or chemical toxicities on repeat laboratory testing (healthy volunteers [4]; 4 d after drug administration): no hematologic or chemical toxicities
organ toxicity (healthy volunteers [4]; any dose tested, inpatient exams, 2 and 4 wk follow-up): No hematologic, hepatic, renal, or other organ toxicity was observed; also recorded: no clinical evidence for end-organ toxicity

mono-dealkylated metabolite/parent ratio in urine ([1]; days 1-3, AQ-72/AQ-13 and MDCQ/CQ): 22.7%
time after dosing at which metabolite/parent ratio reached 1.0 ([2]; 600 mg CQ, MDCQ/CQ ratio): 2–3 wk
metabolite/parent ratio in blood at the Cmax of the parent drug ([2]; 600 mg dose, AQ-72/AQ-13 (mean) or MDCQ/CQ): 0.26
time to appearance of metabolite in the blood ([2]; after oral 600 or 700 mg AQ-13 or 600 mg CQ): ≤ 1 h
AUC ([2]; whole blood, oral, 1500 mg, after 1,500 mg CQ over 3 d, median (range), read-out: AUCτ of metabolite): 330 µM·h
MRT ([2]; whole blood, oral, 1500 mg, after 1,500 mg CQ over 3 d, median (range), read-out: MRT of metabolite (converted)): 29 days
half-life ([2]; whole blood, oral, 1500 mg, after 1,500 mg CQ over 3 d, median (range), read-out: t1/2 of metabolite (converted)): 21.8 days
AUC ([2]; whole blood, po, 600 mg, after 600 mg oral dose of parent drug (CQ or AQ-13), whole blood, median (range), read-out: AUCτ of metabolite): 205 µM·h
MRT ([2]; whole blood, after 600 mg oral dose of parent drug, median (range), read-out: MRT of metabolite (converted)): 44.8 days
half-life ([2]; whole blood, after 600 mg oral dose of parent drug, median (range), read-out: t1/2 of metabolite (converted)): 31.2 days
Cmax ([2]; whole blood, after 600 mg oral dose of parent drug, median, read-out: Cmax of metabolite): 540 nM
SMILES: CCNCCCC(C)Nc1ccnc2cc(Cl)ccc12 (centres unmarked) [MDCQ, mono-desethylchloroquine]
